Results taken from publication PMC10509173, “Deep learning driven de novo drug design based on gastric proton pump structures” (Communications Biology, 2023).
“And” between values parts separate entries of the source, which are not always exact repeats. Equal values may be shown once. Each block holds one compound with its values, some of them ahead of it.

What was measured:
H+,K+-ATPase [1] = biological target: T1, H+,K+-ATPase (Sus scrofa, UniProt P19156); experiment: Dose-dependent inhibition of H+,K+-ATPase activity, membrane fractions; conditions: for H+,K+-ATPase activity, raw data of dose-dependent inhibition: single replicate values
T1 sequence (P19156 2-1034 limits assumed): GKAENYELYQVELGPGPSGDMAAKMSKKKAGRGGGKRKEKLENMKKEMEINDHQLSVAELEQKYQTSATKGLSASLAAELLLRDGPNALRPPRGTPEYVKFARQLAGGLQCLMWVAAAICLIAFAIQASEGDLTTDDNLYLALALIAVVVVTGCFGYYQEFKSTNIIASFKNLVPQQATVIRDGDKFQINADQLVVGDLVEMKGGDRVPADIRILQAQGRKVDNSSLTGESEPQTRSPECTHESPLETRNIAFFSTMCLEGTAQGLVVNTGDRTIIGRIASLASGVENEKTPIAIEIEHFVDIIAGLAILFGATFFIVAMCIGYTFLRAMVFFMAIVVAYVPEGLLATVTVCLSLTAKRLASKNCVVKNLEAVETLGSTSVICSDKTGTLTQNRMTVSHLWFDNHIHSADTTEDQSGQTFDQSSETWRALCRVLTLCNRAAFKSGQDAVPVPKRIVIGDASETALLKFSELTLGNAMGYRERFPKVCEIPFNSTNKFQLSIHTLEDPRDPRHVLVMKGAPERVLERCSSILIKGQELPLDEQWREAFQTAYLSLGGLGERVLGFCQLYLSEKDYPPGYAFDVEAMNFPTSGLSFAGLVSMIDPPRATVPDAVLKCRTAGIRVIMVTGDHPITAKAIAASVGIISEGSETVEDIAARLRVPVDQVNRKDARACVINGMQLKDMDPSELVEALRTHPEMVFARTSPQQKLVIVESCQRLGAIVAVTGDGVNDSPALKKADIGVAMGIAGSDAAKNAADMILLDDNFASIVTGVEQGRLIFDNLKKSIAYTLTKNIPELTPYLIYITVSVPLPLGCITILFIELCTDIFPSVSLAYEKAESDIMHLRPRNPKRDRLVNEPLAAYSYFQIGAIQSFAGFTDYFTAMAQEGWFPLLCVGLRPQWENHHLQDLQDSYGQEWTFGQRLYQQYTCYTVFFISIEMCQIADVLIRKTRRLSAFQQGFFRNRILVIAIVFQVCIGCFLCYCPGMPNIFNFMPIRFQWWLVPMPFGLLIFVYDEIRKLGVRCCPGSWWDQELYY
T1 sequence (P18434 whole entry partner): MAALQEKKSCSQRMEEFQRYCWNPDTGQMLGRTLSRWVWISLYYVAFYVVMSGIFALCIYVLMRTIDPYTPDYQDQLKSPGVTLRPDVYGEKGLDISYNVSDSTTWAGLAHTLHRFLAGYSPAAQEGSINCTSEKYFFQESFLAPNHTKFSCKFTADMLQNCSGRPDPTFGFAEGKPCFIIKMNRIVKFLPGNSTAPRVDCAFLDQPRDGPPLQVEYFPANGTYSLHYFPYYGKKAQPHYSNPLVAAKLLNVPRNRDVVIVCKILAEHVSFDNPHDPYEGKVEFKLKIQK

H+,K+-ATPase [2] = biological target: T1, H+,K+-ATPase; experiment: K+-dependent ATPase assay, double reciprocal plot and Ki estimation; type: biochemical, pig; set-up: H^+,K^+-ATPase-enriched membrane fractions were purified from pig stomach; from tissue; host or cells: pig stomach (gastric membrane fractions); reciprocal K+-stimulated ATPase activity, Lineweaver-Burk raw data: unit not given here; conditions: for reciprocal K+-stimulated ATPase activity, Lineweaver-Burk raw data: replicate values
Source text: Data measured from 96-well plate contained triplicates of four different sets of K^+-dependent ATPase assays in the absence or presence of three different concentrations of synthesized compounds. Data were corrected for background values in the absence of K^+ at each compound concentration, and plot them against the double reciprocal axes in Supplementary Fig. 5. Data were also fitted by using simultaneous nonlinear regression as described previously to estimate their Ki values.

[3] = [PCAB] -3.30103 (log, unit not given)
[4] = [PCAB] -3.52288 (log, unit not given)
[5] = [PCAB] -4 (log, unit not given)
[6] = [PCAB] -4.30103 (log, unit not given)
[7] = [PCAB] -4.52288 (log, unit not given)
[8] = [PCAB] -5 (log, unit not given)
[9] = [PCAB] -5.52288 (log, unit not given)
[10] = [PCAB] -6 (log, unit not given)
[11] = [PCAB] -6.30103 (log, unit not given)
[12] = [PCAB] -7 (log, unit not given)
[13] = [PCAB] -8 (log, unit not given)
[14] = [PCAB] -11 (log, unit not given; possibly placeholder for no compound)

IC50 (H+,K+-ATPase [1]): 39.9 ± 3.3 µM
reciprocal K+-stimulated ATPase activity, Lineweaver-Burk raw data (H+,K+-ATPase [2]; compound concentration 5, 1/KCl 0.05 (units not given)): 0.0047 and 0.0046 and 0.005
reciprocal K+-stimulated ATPase activity, Lineweaver-Burk raw data (H+,K+-ATPase [2]; compound concentration 5, 1/KCl 0.1 (units not given)): 0.0059 and 0.0058 (2×)
reciprocal K+-stimulated ATPase activity, Lineweaver-Burk raw data (H+,K+-ATPase [2]; compound concentration 5, 1/KCl 0.125 (units not given)): 0.0059 (2×) and 0.006
reciprocal K+-stimulated ATPase activity, Lineweaver-Burk raw data (H+,K+-ATPase [2]; compound concentration 5, 1/KCl 0.2 (units not given)): 0.0059 (2×) and 0.0061
reciprocal K+-stimulated ATPase activity, Lineweaver-Burk raw data (H+,K+-ATPase [2]; compound concentration 5, 1/KCl 0.5 (units not given)): 0.0114 and 0.0113 and 0.0109
reciprocal K+-stimulated ATPase activity, Lineweaver-Burk raw data (H+,K+-ATPase [2]; compound concentration 5, 1/KCl 1 (units not given)): 0.0177 and 0.0175 and 0.0166
reciprocal K+-stimulated ATPase activity, Lineweaver-Burk raw data (H+,K+-ATPase [2]; compound concentration 5, 1/KCl 2 (units not given)): 0.0312 and 0.0335 and 0.0294
reciprocal K+-stimulated ATPase activity, Lineweaver-Burk raw data (H+,K+-ATPase [2]; compound concentration 10, 1/KCl 0.05 (units not given)): 0.0052
reciprocal K+-stimulated ATPase activity, Lineweaver-Burk raw data (H+,K+-ATPase [2]; compound concentration 10, 1/KCl 0.1 (units not given)): 0.0066 and 0.0067 and 0.0069
reciprocal K+-stimulated ATPase activity, Lineweaver-Burk raw data (H+,K+-ATPase [2]; compound concentration 10, 1/KCl 0.125 (units not given)): 0.0073 and 0.0075 and 0.0074
reciprocal K+-stimulated ATPase activity, Lineweaver-Burk raw data (H+,K+-ATPase [2]; compound concentration 10, 1/KCl 0.2 (units not given)): 0.0079 and 0.0078 and 0.0077
reciprocal K+-stimulated ATPase activity, Lineweaver-Burk raw data (H+,K+-ATPase [2]; compound concentration 10, 1/KCl 0.5 (units not given)): 0.0173 and 0.016 and 0.018
reciprocal K+-stimulated ATPase activity, Lineweaver-Burk raw data (H+,K+-ATPase [2]; compound concentration 10, 1/KCl 1 (units not given)): 0.0258 (2×) and 0.029
reciprocal K+-stimulated ATPase activity, Lineweaver-Burk raw data (H+,K+-ATPase [2]; compound concentration 10, 1/KCl 2 (units not given)): 0.0498 and 0.0514 and 0.0558
reciprocal K+-stimulated ATPase activity, Lineweaver-Burk raw data (H+,K+-ATPase [2]; compound concentration 40, 1/KCl 0.05 (units not given)): 0.0101 and 0.0102 and 0.0088
reciprocal K+-stimulated ATPase activity, Lineweaver-Burk raw data (H+,K+-ATPase [2]; compound concentration 40, 1/KCl 0.1 (units not given)): 0.0146 and 0.0158 and 0.0151
reciprocal K+-stimulated ATPase activity, Lineweaver-Burk raw data (H+,K+-ATPase [2]; compound concentration 40, 1/KCl 0.125 (units not given)): 0.0175 and 0.0157 and 0.013
reciprocal K+-stimulated ATPase activity, Lineweaver-Burk raw data (H+,K+-ATPase [2]; compound concentration 40, 1/KCl 0.2 (units not given)): 0.0176 and 0.0181 and 0.0182
reciprocal K+-stimulated ATPase activity, Lineweaver-Burk raw data (H+,K+-ATPase [2]; compound concentration 40, 1/KCl 0.5 (units not given)): 0.0393 and 0.036 and 0.0314
reciprocal K+-stimulated ATPase activity, Lineweaver-Burk raw data (H+,K+-ATPase [2]; compound concentration 40, 1/KCl 1 (units not given)): 0.0754 and 0.0762 and 0.0737
reciprocal K+-stimulated ATPase activity, Lineweaver-Burk raw data (H+,K+-ATPase [2]; compound concentration 40, 1/KCl 2 (units not given)): 0.1646 and 0.1689 and 0.18
Ki (H+,K+-ATPase [2]; double reciprocal plot analysis, K+-competitive, read-out: estimated inhibition constant Ki): 4.65 µM
inhibition mode (H+,K+-ATPase [2]; double reciprocal plot, versus K+): typical competitive inhibition pattern
SMILES: CNCC#CCOCc1cc(Cl)ccc1-c1ccc(Cl)cc1 [DQ-02]
H+,K+-ATPase activity, raw data of dose-dependent inhibition (H+,K+-ATPase [1]; [3]): -3.48 and -2.88 and 2.99 and 4.4 and 2.96 and 5.89
H+,K+-ATPase activity, raw data of dose-dependent inhibition (H+,K+-ATPase [1]; [4]): 0.86 and 1.16 and 4.19 and 5.19 and 4.89 and 4.75
H+,K+-ATPase activity, raw data of dose-dependent inhibition (H+,K+-ATPase [1]; [5]): 42.01 and 43.89 and 31.47 and 31.59 and 28.65 and 29.6
H+,K+-ATPase activity, raw data of dose-dependent inhibition (H+,K+-ATPase [1]; [6]): 44.62 and 46.8 and 48.6 and 46.17 and 46.72 and 37.34
H+,K+-ATPase activity, raw data of dose-dependent inhibition (H+,K+-ATPase [1]; [7]): 56.61 and 55.53 and 56.64 and 57.99 and 58.21 and 59.24
H+,K+-ATPase activity, raw data of dose-dependent inhibition (H+,K+-ATPase [1]; [8]): 76.31 and 74.65 and 77.66 and 80.01 and 78.54 and 73.73
H+,K+-ATPase activity, raw data of dose-dependent inhibition (H+,K+-ATPase [1]; [9]): 94.23 and 90.64 and 95.59 and 93.89 and 93 and 95.88
H+,K+-ATPase activity, raw data of dose-dependent inhibition (H+,K+-ATPase [1]; [10]): 97.7 and 98.02 and 94.2 and 97.49 and 93.51 and 99.15
H+,K+-ATPase activity, raw data of dose-dependent inhibition (H+,K+-ATPase [1]; [11]): 97.98 and 96.67 and 103.79 and 104.81 and 106.59 and 107.52
H+,K+-ATPase activity, raw data of dose-dependent inhibition (H+,K+-ATPase [1]; [12]): 99.57 and 99.45 and 98.18 and 98.05 and 96.63 and 99.09
H+,K+-ATPase activity, raw data of dose-dependent inhibition (H+,K+-ATPase [1]; [13]): 97.5 and 100.13 and 97.23 and 97.51 and 96.21 and 102.69
H+,K+-ATPase activity, raw data of dose-dependent inhibition (H+,K+-ATPase [1]; [14]): 99.85 and 98.59 and 101.41 and 99.82 and 98.22 and 99.87

IC50 (H+,K+-ATPase [1]): 0.28 ± 0.02 µM
SMILES: CNCc1ccc(OCc2ccccc2OCc2ccc(Cl)cc2)cc1 [DQ-21]
H+,K+-ATPase activity, raw data of dose-dependent inhibition (H+,K+-ATPase [1]; [3]): -1.36 and -1 and -1.49 and 3.72 and -1.45 and 1.58
H+,K+-ATPase activity, raw data of dose-dependent inhibition (H+,K+-ATPase [1]; [4]): 0.39 and 0.54 and 0.08 and 0.18 and 0.41 and 0.55
H+,K+-ATPase activity, raw data of dose-dependent inhibition (H+,K+-ATPase [1]; [5]): 3.33 and 3.13 and 3.68 and 3.03 and 3.2 and 3.37
H+,K+-ATPase activity, raw data of dose-dependent inhibition (H+,K+-ATPase [1]; [6]): 4.45 and 4.77 and 4.44 and 4.84 and 4.43 and 4.67
H+,K+-ATPase activity, raw data of dose-dependent inhibition (H+,K+-ATPase [1]; [7]): 6.47 and 6.44 and 6.31 and 6.43 and 6.29 and 6.56
H+,K+-ATPase activity, raw data of dose-dependent inhibition (H+,K+-ATPase [1]; [8]): 7.76 and 7.75 and 7.99 (2×) and 7.89 and 7.77
H+,K+-ATPase activity, raw data of dose-dependent inhibition (H+,K+-ATPase [1]; [9]): 11.96 and 12.26 and 11.83 and 11.89 and 11.45 and 12.14
H+,K+-ATPase activity, raw data of dose-dependent inhibition (H+,K+-ATPase [1]; [10]): 23.55 and 22.68 and 22.58 and 21.83 and 22.75 and 23.52
H+,K+-ATPase activity, raw data of dose-dependent inhibition (H+,K+-ATPase [1]; [11]): 36.33 and 33.31 and 34.67 and 35.15 and 34.9 and 34.74
H+,K+-ATPase activity, raw data of dose-dependent inhibition (H+,K+-ATPase [1]; [12]): 76.22 and 75.51 and 71.53 and 74.65 and 69.37
H+,K+-ATPase activity, raw data of dose-dependent inhibition (H+,K+-ATPase [1]; [13]): 101.03 and 99.43 and 98.88 and 100.2 and 98.66 and 98.58
H+,K+-ATPase activity, raw data of dose-dependent inhibition (H+,K+-ATPase [1]; [14]): 102.52 and 101.98 and 100.28 and 101.48 and 100.07 and 102.84

IC50 (H+,K+-ATPase [1]): 33.9 ± 3.8 µM
SMILES: CNCC#CCOCc1cc(Cl)ccc1-c1ccc(Cl)c(F)c1 [DQ-04]
H+,K+-ATPase activity, raw data of dose-dependent inhibition (H+,K+-ATPase [1]; [3]): 0.25 and -0.25 and -0.38 and 0.38 and -0.3 and -3.39
H+,K+-ATPase activity, raw data of dose-dependent inhibition (H+,K+-ATPase [1]; [4]): 1.96 and 3.36 and 3.54 and 3.3 and 3.08 and 0.78
H+,K+-ATPase activity, raw data of dose-dependent inhibition (H+,K+-ATPase [1]; [5]): 36.71 and 36.26 and 38.13 and 35.18 and 35.01 and 32.77
H+,K+-ATPase activity, raw data of dose-dependent inhibition (H+,K+-ATPase [1]; [6]): 44 and 42.16 and 21.74 and 21.63 and 20.87 and 17.27
H+,K+-ATPase activity, raw data of dose-dependent inhibition (H+,K+-ATPase [1]; [7]): 54.64 and 55.71 and 47.64 and 52.61 and 61.59 and 63.39
H+,K+-ATPase activity, raw data of dose-dependent inhibition (H+,K+-ATPase [1]; [8]): 84.91 and 81.14 and 76.84 and 80.91 and 85.5 and 81.75
H+,K+-ATPase activity, raw data of dose-dependent inhibition (H+,K+-ATPase [1]; [9]): 98.14 and 98.72 and 86.17 and 97.35 and 92.86 and 93.01
H+,K+-ATPase activity, raw data of dose-dependent inhibition (H+,K+-ATPase [1]; [10]): 100.43 and 99.64 (2×) and 95.5 and 94.06 and 98.22
H+,K+-ATPase activity, raw data of dose-dependent inhibition (H+,K+-ATPase [1]; [11]): 97.37 and 99.94 and 104.98 and 87.87 and 104.85 and 101.28
H+,K+-ATPase activity, raw data of dose-dependent inhibition (H+,K+-ATPase [1]; [12]): 98.23 and 101.36 and 99.76 and 99.57 and 100.69 and 98.11
H+,K+-ATPase activity, raw data of dose-dependent inhibition (H+,K+-ATPase [1]; [13]): 101.57 and 100.61 and 99.59 and 102.17 and 101.49 and 97.6
H+,K+-ATPase activity, raw data of dose-dependent inhibition (H+,K+-ATPase [1]; [14]): 101.41 and 100.27 and 102.04 and 101.19 and 98.33 and 99.11
